From article PMC2782732 (ACS chemical biology, 2008)

Biological target: dengue E protein (Dengue virus type 2, UniProt P12823)
Format: binding
Conditions: BOG plus dengue E protein, on-resonance irradiation at −2 ppm

SMILES: CCCCCCCCO[C@@H]1O[C@H](CO)[C@@H](O)[C@H](O)[C@H]1O [BOG, N-octyl-β-D-glucoside]
- STD NMR signal of ligand with E protein: strong signals
